In PMC3201797 (Bioorganic & medicinal chemistry letters, 2010):
One block for each substance: values may come before it.

Columns and labels:
Assay type in all cases: biochemical
[1] = target: T1, prostate-specific membrane antigen (PSMA) (Homo sapiens, UniProt Q04609); experiment: PSMA enzyme inhibition assay with purified PSMA
[2] = target: T1, prostate-specific membrane antigen (PSMA); experiment: PSMA enzyme inhibition assay
[3] = target: T1, prostate-specific membrane antigen (PSMA); experiment: PSMA enzyme inhibition assay with purified PSMA; remark: listed apart in the source

T1 sequence (Q04609 whole entry): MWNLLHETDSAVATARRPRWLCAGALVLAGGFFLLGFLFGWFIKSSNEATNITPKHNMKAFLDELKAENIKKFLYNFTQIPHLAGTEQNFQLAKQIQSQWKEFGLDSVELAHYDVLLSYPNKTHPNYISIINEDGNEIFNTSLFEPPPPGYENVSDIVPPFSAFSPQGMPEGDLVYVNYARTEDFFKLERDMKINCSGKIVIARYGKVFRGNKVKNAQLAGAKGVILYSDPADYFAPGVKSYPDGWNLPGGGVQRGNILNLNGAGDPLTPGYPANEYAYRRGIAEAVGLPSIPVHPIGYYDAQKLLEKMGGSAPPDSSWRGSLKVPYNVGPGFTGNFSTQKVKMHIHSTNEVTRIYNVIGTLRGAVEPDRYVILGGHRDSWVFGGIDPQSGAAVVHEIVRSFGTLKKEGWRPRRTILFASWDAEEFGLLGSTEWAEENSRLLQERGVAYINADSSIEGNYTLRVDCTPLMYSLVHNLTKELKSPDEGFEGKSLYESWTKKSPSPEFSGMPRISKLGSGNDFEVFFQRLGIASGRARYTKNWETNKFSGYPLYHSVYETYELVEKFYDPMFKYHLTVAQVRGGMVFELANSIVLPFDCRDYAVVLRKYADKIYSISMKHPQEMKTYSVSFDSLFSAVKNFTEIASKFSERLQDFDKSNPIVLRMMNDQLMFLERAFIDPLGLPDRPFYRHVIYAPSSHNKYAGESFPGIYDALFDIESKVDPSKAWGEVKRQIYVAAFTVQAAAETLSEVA

IC50 [1]: 0.144 µM
Substance: CTT-54.2

IC50 [2]: 6.1 µM
Substance: Cy5.5 free acid

IC50 [3]: 0.00055 µM
Substance: Cy5.5-CTT-54.2
